# Test results from patent US11951137B2, “Compositions comprising unsaturated fatty acids and nitric oxide releasing compounds and use thereof for enhancing cognitive and related functions” (SOCIETE DES PRODUITS NESTLE S.A., priority 2008, dated 2024).
# Test system: human iCell neurons
# Assay: Amyloid beta 42 ELISA on supernatant, neuronal model
# Details: treated 2 days, 3 concentrations, FIG. 2
# Experimental: For a neuronal model, human iCell neurons (Cellular Dynamics International) were plated in 96-well plates and were grown to neuronal maturity by culturing for 2 weeks.
# In each model, cells were then treated with DHA (UFA), arginine and citrulline (NORC's) at 3 different concentrations (see table 1 in FIG. 1) for 2 days. The supernatant was used to perform Amyloid beta 42 (A131-42) ELISA Kit, Human (KHB3441, Thermo Fisher Scientific).
row,Structure (SMILES),release of Aβ1-42
1,NC(=O)NCCC[C@H](N)C(=O)O [citrulline],no effect
2,"CC/C=C\C/C=C\C/C=C\C/C=C\C/C=C\C/C=C\CCC(=O)O [DHA, docosahexaenoic acid]",no effect
